In patent US6641843B1, “Pharmaceutical compositions” (SmithKline Beecham Corporation, priority 1998, dated 2003):

Assay: Stability and excipient compatibility of the compound in oral solution
Type: physicochemical
Source text: Solutions of (1S,4R)-cis-4-[2-amino-6-cyclopropylamino)-9H-purin-9-yl]-2-cyclopentene-1-methanol are bitter-tasting and therefore require the addition of sweeteners and taste-maskers. However, formulation of (1S,4R)-cis-4-[2-amino-6-cyclopropylamino)-9H-purin-9-yl]-2-cyclopentene-1-methanol in solution is difficult because materials containing a —COOH group present problems with (1S,4R)-cis-4-[2-amino-6-cyclopropylamino)-9H-purin-9-yl]-2-cyclopentene-1-methanol compatibility.
Advantageously, the pH may be 3.8 to 4.5.

adduct formation with sorbitol and/or saccharin (in solution): do not lead to the formation of adducts
compatibility with combinations of fructose, acesulfame and saccharin (in solution): compatible
compatibility with sorbitol or saccharin or a combination of sorbitol and saccharin (in solution): compatible
adduct formation with glucose (in solution, glucose replaces the methanol group on the cyclopentyl ring): forms an adduct
compatibility with sucrose and glucose (in solution, sucrose degrades to glucose and fructose): incompatible
effect of addition of a metal chelator on stability in solution (metal chelator, for example citrate): improves the stability
Compound: Nc1nc(NC2CC2)c2ncn([C@H]3C=C[C@@H](CO)C3)c2n1 [abacavir]
appearance of solutions containing sorbitol (pH 4.5-6.5): color change and the formation of dark colored particulates
effect of lowering the pH on color change and particulates (pH lowered to about 4.0): eliminates the color change and the formation of particulates
